Laboratory results: patent publication US12498382B2, “Biomarkers for vitiligo” (INCYTE CORPORATION, priority 2019, dated 2025)

Test system: HaCaT cells
Assay: Normalized expression of target genes in HaCaT cells stimulated with TNFα and IFNγ in presence/absence of JAK inhibitors (QuantiGene Plex)
Assay type: cell-based, human
Protocol: Transformed human keratinocyte (HaCaT) cells were purchased from AddexBio (Catalog #T0020001) and cultured as outlined in Example 5. […] After 48 hours, cell culture media was removed from 24 well plates and replaced with 250 uL of media containing serial diluted drug, then incubated for 15 minutes at 37° C./5% CO2. After drug incubation, 250 uL of combinatory stimulation containing Recombinant Human Interferon gamma (R&D Systems, Catalog #285-IF-100) and Recombinant Human Tumor Necrosis Factor alpha (R&D Systems, Catalog #210-TA-020) was added to plates. The final concentration of Recombinant Human Interferon gamma and Recombinant Human Tumor Necrosis Factor alpha was 25 ng/mL of each cytokine. Cytokine stimulation added to wells containing drug brought the final concentrations for each drug treatment to 25 nM, 50 nM, 100 nM, and 200 nM. Treated plates were mixed by gentle agitation for 30 seconds then incubated for 24 hours at 37° C./5% CO2. At the end of the 24 hour incubation media was immediately removed from each plate.
RNA was isolated from HaCaT cells using the QuantiGene Plex Assay reagents and protocols (Affymetrix, Catalog #QGP-232-M18042302) according to the manufacturer's guidelines. Cells were washed with 1×DPBS then lysed by incubation with provided QuantiGene lysis buffer for 30 minutes at 50-55° C. Cell lysates were incubated for 18-24 hours at 55° C. with capture beads and probe set designed to specifically hybridize to mRNA from targets of interest. Genes included housekeeping genes (e.g., HPRT1 and GAPDH) used for the normalization of the results. After the 18-24 hour incubation signal was amplified utilizing branched DNA methodologies, according to the manufacturer's procedures (Affymetrix, Catalog #QGP-232-M18042302). After hybridization and wash steps assay plate was read on the Luminex 200 and data were expressed as Net Median Fluorescence Intensity. Data was then normalized to the Net Median Fluorescence Intensity of the housekeeping gene HPRT1 (Table 14).

[1] = TNFα+IFNγ 25 ng/mL, Drug Conc 25 nM
[2] = TNFα+IFNγ 25 ng/mL, Drug Conc 50 nM
[3] = TNFα+IFNγ 25 ng/mL, Drug Conc 100 nM
[4] = TNFα+IFNγ 25 ng/mL, Drug Conc 200 nM
[5] = no stimulation, Drug Conc 200 nM

N#CCC1(n2cc(-c3ncnc4[nH]ccc34)cn2)CN(C2CCN(C(=O)c3ccnc(C(F)(F)F)c3F)CC2)C1 [Cpd B, {1-{1-[3-fluoro-2-(trifluoromethyl)isonicotinoyl]piperidin-4-yl}-3[4-(7H-pyrrolo[2,3-d]pyrimidin-4-yl)-1H-pyrazol-1-yl]azetidin-3-yl}acetonitrile]
AREG normalized expression MFI [1]: 737.85 ± 22.1
CCL17 normalized expression MFI [1]: 3.37 ± 0.54
CCL18 normalized expression MFI [1]: 2.12 ± 0.32
FLG normalized expression MFI [1]: 71.57 ± 9.14
IL6 normalized expression MFI [1]: 130.24 ± 3.84
IL8 normalized expression MFI [1]: 381.74 ± 10.25
IL17A normalized expression MFI [1]: 0.88 ± 0.13
IL22 normalized expression MFI [1]: 1.21 ± 0.24
IL23A normalized expression MFI [1]: 43.92 ± 1.89
IL31 normalized expression MFI [1]: 1.33 ± 0.33
ILIA normalized expression MFI [1]: 1288.02 ± 20
IYK2 normalized expression MFI [1]: 292.92 ± 7.99
JAK1 normalized expression MFI [1]: 216.23 ± 6.41
JAK2 normalized expression MFI [1]: 109.39 ± 2.8
JAK3 normalized expression MFI [1]: 0.84 ± 0.12
LOR normalized expression MFI [1]: 43.2 ± 14.11
S100A7 normalized expression MFI [1]: 5.45 ± 1.02
S100A12 normalized expression MFI [1]: 1.21 ± 0.16
SERPINB3 normalized expression MFI [1]: 3.16 ± 0.43
SERPINB4 normalized expression MFI [1]: 4.23 ± 0.7
STAT1 normalized expression MFI [1]: 2861.37 ± 204.56
STAT3 normalized expression MFI [1]: 1466.73 ± 66.75
STAT4 normalized expression MFI [1]: 6 ± 0.46
STAT5A normalized expression MFI [1]: 23.69 ± 1.63
STAT5B normalized expression MFI [1]: 40.74 ± 2.3
STAT6 normalized expression MFI [1]: 1004.82 ± 23.76
TNF normalized expression MFI [1]: 28.04 ± 1.24
VEGFA normalized expression MFI [1]: 553.23 ± 11.38
AREG normalized expression MFI [2]: 701.57 ± 12.75
CCL17 normalized expression MFI [2]: 3.06 ± 0.34
CCL18 normalized expression MFI [2]: 2.2 ± 0.35
FLG normalized expression MFI [2]: 74.31 ± 8.77
IL6 normalized expression MFI [2]: 122.69 ± 4.36
IL8 normalized expression MFI [2]: 376.41 ± 13.16
IL17A normalized expression MFI [2]: 0.92 ± 0.14
IL22 normalized expression MFI [2]: 1.15 ± 0.18
IL23A normalized expression MFI [2]: 45.85 ± 2.3
IL31 normalized expression MFI [2]: 1.22 ± 0.29
ILIA normalized expression MFI [2]: 1258.76 ± 23.63
IYK2 normalized expression MFI [2]: 287.31 ± 11.08
JAK1 normalized expression MFI [2]: 210.42 ± 10.89
JAK2 normalized expression MFI [2]: 101 ± 2.26
JAK3 normalized expression MFI [2]: 0.83 ± 0.15
LOR normalized expression MFI [2]: 43.96 ± 15.87
S100A7 normalized expression MFI [2]: 7.08 ± 1.99
S100A12 normalized expression MFI [2]: 1.04 ± 0.15
SERPINB3 normalized expression MFI [2]: 2.3 ± 0.34
SERPINB4 normalized expression MFI [2]: 3.76 ± 0.66
STAT1 normalized expression MFI [2]: 2855.28 ± 166.89
STAT3 normalized expression MFI [2]: 1437.28 ± 60.69
STAT4 normalized expression MFI [2]: 6.22 ± 0.42
STAT5A normalized expression MFI [2]: 22.32 ± 2.16
STAT5B normalized expression MFI [2]: 42.9 ± 2.44
STAT6 normalized expression MFI [2]: 990.05 ± 21.06
TNF normalized expression MFI [2]: 28.66 ± 2.58
VEGFA normalized expression MFI [2]: 545.93 ± 9.71
AREG normalized expression MFI [3]: 731.24 ± 25.4
CCL17 normalized expression MFI [3]: 2.87 ± 0.33
CCL18 normalized expression MFI [3]: 2.01 ± 0.44
FLG normalized expression MFI [3]: 74.99 ± 8.16
IL6 normalized expression MFI [3]: 111.07 ± 4.74
IL8 normalized expression MFI [3]: 387.33 ± 19.5
IL17A normalized expression MFI [3]: 0.85 ± 0.15
IL22 normalized expression MFI [3]: 1 ± 0.17
IL23A normalized expression MFI [3]: 53.05 ± 3.22
IL31 normalized expression MFI [3]: 1.04 ± 0.31
ILIA normalized expression MFI [3]: 1162.35 ± 23.34
IYK2 normalized expression MFI [3]: 284.15 ± 9.62
JAK1 normalized expression MFI [3]: 205.03 ± 11.49
JAK2 normalized expression MFI [3]: 94.5 ± 2.65
JAK3 normalized expression MFI [3]: 0.92 ± 0.13
LOR normalized expression MFI [3]: 31.4 ± 10.44
S100A7 normalized expression MFI [3]: 3.83 ± 1.02
S100A12 normalized expression MFI [3]: 1 ± 0.17
SERPINB3 normalized expression MFI [3]: 2.2 ± 0.35
SERPINB4 normalized expression MFI [3]: 2.87 ± 0.48
STAT1 normalized expression MFI [3]: 2783.68 ± 179.19
STAT3 normalized expression MFI [3]: 1373.34 ± 55.51
STAT4 normalized expression MFI [3]: 6.21 ± 0.48
STAT5A normalized expression MFI [3]: 20.87 ± 2.1
STAT5B normalized expression MFI [3]: 40.75 ± 2.41
STAT6 normalized expression MFI [3]: 987.64 ± 15.75
TNF normalized expression MFI [3]: 29.5 ± 2.82
VEGFA normalized expression MFI [3]: 524.82 ± 13.65
AREG normalized expression MFI [4]: 730.41 ± 24.58
CCL17 normalized expression MFI [4]: 3.13 ± 0.48
CCL18 normalized expression MFI [4]: 1.68 ± 0.32
FLG normalized expression MFI [4]: 87.37 ± 10.99
IL6 normalized expression MFI [4]: 93.03 ± 3.25
IL8 normalized expression MFI [4]: 377.69 ± 20.45
IL17A normalized expression MFI [4]: 0.91 ± 0.17
IL22 normalized expression MFI [4]: 1.01 ± 0.19
IL23A normalized expression MFI [4]: 59.53 ± 3.83
IL31 normalized expression MFI [4]: 1.14 ± 0.32
ILIA normalized expression MFI [4]: 1126.94 ± 26.22
IYK2 normalized expression MFI [4]: 277.52 ± 8.67
JAK1 normalized expression MFI [4]: 195.97 ± 10.45
JAK2 normalized expression MFI [4]: 89.16 ± 3.43
JAK3 normalized expression MFI [4]: 0.79 ± 0.15
LOR normalized expression MFI [4]: 38.46 ± 14.1
S100A7 normalized expression MFI [4]: 5.73 ± 1.59
S100A12 normalized expression MFI [4]: 1.14 ± 0.16
SERPINB3 normalized expression MFI [4]: 2.21 ± 0.44
SERPINB4 normalized expression MFI [4]: 3.19 ± 0.7
STAT1 normalized expression MFI [4]: 2850.04 ± 177.51
STAT3 normalized expression MFI [4]: 1400.77 ± 58.44
STAT4 normalized expression MFI [4]: 6.27 ± 0.56
STAT5A normalized expression MFI [4]: 19.2 ± 1.94
STAT5B normalized expression MFI [4]: 41 ± 3.46
STAT6 normalized expression MFI [4]: 985.17 ± 29.31
TNF normalized expression MFI [4]: 28.31 ± 2.97
VEGFA normalized expression MFI [4]: 516.11 ± 14.7
AREG normalized expression MFI [5]: 260.61 ± 14.67
CCL17 normalized expression MFI [5]: 1.56 ± 0.38
CCL18 normalized expression MFI [5]: 1.49 ± 0.37
FLG normalized expression MFI [5]: 256.93 ± 36.45
IL6 normalized expression MFI [5]: 4.7 ± 0.32
IL8 normalized expression MFI [5]: 61.71 ± 4.86
IL17A normalized expression MFI [5]: 0.46 ± 0.1
IL22 normalized expression MFI [5]: 0.61 ± 0.13
IL23A normalized expression MFI [5]: 11.41 ± 1.43
IL31 normalized expression MFI [5]: 0.72 ± 0.18
ILIA normalized expression MFI [5]: 92.67 ± 5.54
IYK2 normalized expression MFI [5]: 217.28 ± 14.28
JAK1 normalized expression MFI [5]: 177.97 ± 14.91
JAK2 normalized expression MFI [5]: 25.21 ± 1.12
JAK3 normalized expression MFI [5]: 0.68 ± 0.17
LOR normalized expression MFI [5]: 23.78 ± 7.16
S100A7 normalized expression MFI [5]: 4.94 ± 1.59
S100A12 normalized expression MFI [5]: 0.8 ± 0.13
SERPINB3 normalized expression MFI [5]: 2.25 ± 0.49
SERPINB4 normalized expression MFI [5]: 3.39 ± 0.89
STAT1 normalized expression MFI [5]: 529.16 ± 21.86
STAT3 normalized expression MFI [5]: 732.19 ± 23.03
STAT4 normalized expression MFI [5]: 4.28 ± 0.61
STAT5A normalized expression MFI [5]: 1.75 ± 0.44
STAT5B normalized expression MFI [5]: 58.85 ± 6.21
STAT6 normalized expression MFI [5]: 740.11 ± 34.98
TNF normalized expression MFI [5]: 2.58 ± 0.57
VEGFA normalized expression MFI [5]: 211.13 ± 12.18
